Where a SMILES comes first, the peptide text is derived from it. The star is where a group is joined. X1 = CC(C)C[C@@H](N)[C@H](O)C(=O)*
Legend:
Format in all cases: biochemical
[1] = target: T1, leucine aminopeptidase (Leu-AP) (Sus scrofa, UniProt P28839); assay: Leu-AP (E.C. 3,4,11,1) inhibition assay; details: Leu-AP (Boehringer-Mannheim), leucyl-β-naphthylamide substrate, pH 7.6, 37° C., 30 minutes; read-out: IC/50 Leu--AP: amount of the peptide to inhibit the intact activity of the target enzyme by 50% (converted)
T1 construct: purchased Boehringer-Mannheim Co
T1 sequence (P28839 1-519): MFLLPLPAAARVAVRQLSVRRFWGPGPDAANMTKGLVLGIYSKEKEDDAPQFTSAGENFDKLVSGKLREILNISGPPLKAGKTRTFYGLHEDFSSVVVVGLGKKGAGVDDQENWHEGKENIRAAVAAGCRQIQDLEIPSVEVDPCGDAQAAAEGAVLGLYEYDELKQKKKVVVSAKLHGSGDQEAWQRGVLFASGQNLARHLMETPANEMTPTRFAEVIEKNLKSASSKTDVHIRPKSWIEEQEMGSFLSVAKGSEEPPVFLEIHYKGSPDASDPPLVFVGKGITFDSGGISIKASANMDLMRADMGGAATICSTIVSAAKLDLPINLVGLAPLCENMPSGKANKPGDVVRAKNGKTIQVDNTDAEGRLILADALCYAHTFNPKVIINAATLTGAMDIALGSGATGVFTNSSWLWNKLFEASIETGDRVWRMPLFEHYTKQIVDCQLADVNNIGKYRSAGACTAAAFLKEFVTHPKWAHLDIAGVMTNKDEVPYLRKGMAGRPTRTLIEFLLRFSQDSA
Procedure: For enzyme assay, 0.25 ml of 2 mM […], 0.6 ml of 0.1 M Tris-HCl buffer, pH 7.6, and 0.1 ml of an aqueous solution containing a test compound were mixed and allowed to stand at 37° C. for 3 minutes. After a 20-fold dilution of Leu-AP (Boehringer-Mannheim Co.) in 0.1 M Tris-HCl buffer, pH 7.6 (0.05 ml) was added to the solution, the reaction was performed at 37° C. for 30 minutes. The inhibition percentage was measured as detailed in (1).

[2] = target: T2, aminopeptidase A (AP-A) (Homo sapiens, UniProt Q07075); assay: AP-A (E.C. 3,4,11,7) inhibition assay; details: L-α-glutamyl-β-naphthylamide substrate, pH 7.0, 37° C., 30 minutes; read-out: IC/50 AP--A: amount of the peptide to inhibit the intact activity of the target enzyme by 50% (converted)
T2 construct: an AP-A solution which was obtained by ammonium sulfate fractionation according to the method of Nagatsu et al; from tissue
T2 sequence (Q07075 whole entry): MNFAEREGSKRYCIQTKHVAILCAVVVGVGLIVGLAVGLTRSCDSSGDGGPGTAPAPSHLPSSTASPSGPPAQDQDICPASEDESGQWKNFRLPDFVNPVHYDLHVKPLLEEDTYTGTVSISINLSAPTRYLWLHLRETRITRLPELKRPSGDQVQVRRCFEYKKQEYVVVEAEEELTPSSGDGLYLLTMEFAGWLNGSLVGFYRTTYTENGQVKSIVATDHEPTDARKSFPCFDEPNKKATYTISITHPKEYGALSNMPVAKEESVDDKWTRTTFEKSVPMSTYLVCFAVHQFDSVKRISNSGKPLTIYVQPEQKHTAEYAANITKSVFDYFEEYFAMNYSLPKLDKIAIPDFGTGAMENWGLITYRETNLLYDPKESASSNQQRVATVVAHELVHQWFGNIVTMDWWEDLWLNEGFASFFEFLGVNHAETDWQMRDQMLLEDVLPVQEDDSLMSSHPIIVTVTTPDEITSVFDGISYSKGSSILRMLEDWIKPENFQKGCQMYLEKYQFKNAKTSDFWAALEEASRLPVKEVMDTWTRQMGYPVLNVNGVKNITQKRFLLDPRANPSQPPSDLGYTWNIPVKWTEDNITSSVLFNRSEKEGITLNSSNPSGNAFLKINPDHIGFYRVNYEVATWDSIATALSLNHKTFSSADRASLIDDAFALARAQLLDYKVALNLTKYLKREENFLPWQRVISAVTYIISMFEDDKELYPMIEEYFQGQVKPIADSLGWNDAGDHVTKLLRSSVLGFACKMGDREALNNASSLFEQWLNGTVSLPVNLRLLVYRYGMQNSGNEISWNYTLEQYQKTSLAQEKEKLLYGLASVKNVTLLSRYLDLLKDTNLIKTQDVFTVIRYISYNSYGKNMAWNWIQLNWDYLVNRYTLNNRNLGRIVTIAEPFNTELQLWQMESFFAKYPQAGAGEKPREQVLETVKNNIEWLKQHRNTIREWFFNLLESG
Procedure: That is, 0.25 ml of 2 mM L-α-glutamyl-β-naphthylamide, 0.54 ml of 0.1 M Tris-HCl buffer, pH 7.0, 0.01 ml of 0.1 M calcium chloride and 0.1 ml of a test sample in water were mixed and kept at 37° C. for 3 minutes. The reaction was initiated by addition of 0.1 ml of an AP-A solution which was obtained by ammonium sulfate fractionation according to the method of Nagatsu et al. After incubation at 37° C. for 30 minutes, 1 ml of 1.0 M acetate buffer, pH 4.2, containing 1.0 mg/ml Garnet GBC (orthoaminoazotoluene diazonium salt) and 10% Tween 20 (Atlas Chemical Co., U.S.A.) was added to the reaction solution and then allowed to stand at room temperature for 15 minutes. The absorbance of the test solution (a) was measured at 530 nm. The control solution without the test sample was used as the blank test (absorbance (b)). The inhibition percentage on aminopeptidase A was calculated as [(b-a)/b]x100.

[3] = target: glycylhistidyllysine tripeptidylaminopeptidase (Gly-His-Lys-AP); assay: Gly-His-Lys-AP inhibition assay; details: enzyme from FM3A cells (mouse mammary tumor), Hanks solution pH 7.2, 37° C., 30 minutes
Procedure: For enzyme assay, 0.25 ml of 0.5 mM glycyl-L-α-histidyl-L-α-lysyl-β-naphthylamide, 0.62 ml of the Hanks solution, pH 7.2, and 0.1 ml of an aqueous solution of a substance to be tested were combined and maintained at 37° C. for 3 minutes. Gly-His-Lys-AP solution (0.03 ml) which was purified from the FM3A cells (a line of culture cells derived from mouse mammary tumor) by the method described in the reference of (4) was added to the solution and incubated at 37° C. for 30 minutes. The inhibition percentage was calculated as shown in (1).
Gly-His-Lys -β-naphthylamide used above was prepared as follows: to a solution containing 1 g of Gly-His-Lys-acetate (Buchem Fine Chemicals Co.) and 3.0 g of sodium bicarbonate in 60 ml of distilled water, 2.13 ml of Z-Cl was added dropwise under cooling with ice and then stirred for 3 hours. The same treatment as detailed above in Experiment 1-(7) was performed to give 605.8 mg of the Z-derivative of the tripeptide. […]

[4] = target: glycylprolylleucine tripeptidylaminopeptidase (Gly-Pro-Leu-AP); assay: Gly-Pro-Leu-AP inhibition assay; details: enzyme from cell membrane fraction of rat liver, Hanks solution pH 7.2, 37° C., 30 minutes
Procedure: According to the method of Aoyagi et al. (T. Aoyagi et al: BIOCHIMICA ET BIOPHYSICA ACTA 452, 131-143(1976)), after a reaction mixture consisting of 0.25 ml of 2 mM glycyl-L-α-prolyl-L-α-leucyl-β-naphthylamide (Buchem Fine Chemicals Co.), 0.6 ml of the Hanks solution, pH 7.2, and 0.1 ml of an aqueous test solution was kept at 37° C. for 3 minutes, 0.05 ml of a Gly-Pro-Leu-AP that was purified from the cell membrane fraction of the rat liver was added and the reaction was carried out at 37° C. for 30 minutes. The same procedure as described in (1) was used for calculation of the inhibition percentage.
The Hanks solution listed above was prepared by dissolving 8.0 g sodium chloride, 0.4 g potassium chloride, 0.14 g calcium chloride, 0.10 g magnesium chloride, 0.06 g disodium-monohydrogen phosphate, 0.06 g monopotassium dihydrogen phosphate, 0.10 g magnesium sulfate and 1.0 g glucose in 1 liter of distilled water and adjusting the solution to pH 7.2 with solid sodium bicarbonate (about 350 mg).

| SMILES | IC50 [1] | IC50 [2] | IC/50 Gly--His--Lys--AP: amount of the peptide to inhibit the intact activity of the target enzyme by 50% [3] | IC/50 Gly--Pro--Leu--AP: amount of the peptide to inhibit the intact activity of the target enzyme by 50% [4] |
| --- | --- | --- | --- | --- |
| CC(C)C[C@@H](N)[C@H](O)C(=O)N[C@H](C(=O)N[C@H](C(=O)N[C@@H](CCC(=O)O)C(=O)O)C(C)C)C(C)C [X--Val--Val--Glu, reference compound] | 4.5 µM | 4.09 µM | – | – |
| CC(C)C[C@@H](N)[C@H](O)C(=O)N1CCC[C@H]1C(=O)O [X--Pro] | 83.2 µM | 774 µM | – | – |
| CC(C)C[C@@H](N)[C@H](O)C(=O)N[C@H](C(=O)O)C(C)C [X--Val] | 1.92 µM | 864 µM | – | – |
| CC(C)C[C@@H](N)[C@H](O)C(=O)N[C@H](C(=O)N[C@H](C(=O)N[C@H](C(=O)N[C@@H](CC(=O)O)C(=O)O)C(C)C)C(C)C)C(C)C [X--Val--Val--Val--Asp] (X1-VVVD-OH) | 7.32 µM | 31.4 µM | – | – |
| CC(C)C[C@@H](N)[C@H](O)C(=O)N[C@H](C(=O)N[C@@H](CCCCN)C(=O)N[C@@H](CC(=O)O)C(=O)O)C(C)C [X--Val--Lys--Asp, (2S,3R)-AHMHA-Val-Lys-Asp] | 6.95 µM | 19.9 µM | – | – |
| CC(C)C[C@@H](N)[C@H](O)C(=O)N[C@H](C(=O)N[C@H](C(=O)N[C@@H](CC(=O)O)C(=O)O)C(C)C)[C@@H](C)O [X--Thr--Val--Asp, (2S,3R)-AHMHA-Thr-Val-Asp] | 5.25 µM | 0.315 µM | – | – |
| CC(C)C[C@@H](N)[C@H](O)C(=O)N[C@H](C(=O)N[C@H](C(=O)N[C@@H](CCCCN)C(=O)O)C(C)C)C(C)C [X--Val--Val--Lys, (2S,3R)-AHMHA-Val-Val-Lys] | 65.6 µM | 43.1 µM | – | – |
| CC(C)C[C@@H](N)[C@H](O)C(=O)N[C@H](C(=O)N[C@H](C(=O)N[C@@H](CC(=O)O)C(=O)O)[C@@H](C)O)C(C)C [X--Val--Thr--Asp, (2S,3R)-AHMHA-Val-Thr-Asp] | 2.1 µM | 2.1 µM | – | – |
| CC(C)C[C@@H](N)[C@H](O)C(=O)N[C@@H](CCCCN)C(=O)N[C@H](C(=O)N[C@H](C(=O)O)C(C)C)C(C)C [X--Lys--Val--Val, (2S,3R)-AHMHA-Lys-Val-Val] | 369 µM | 3.9 µM | – | – |
| CC(C)C[C@H](NC(=O)[C@@H](NC(=O)[C@@H](O)[C@H](N)CC(C)C)C(C)C)C(=O)N[C@@H](CC(=O)O)C(=O)O [X--Val--Leu--Asp, (2S,3R)-AHMHA-Val-Leu-Asp] | 1.43 µM | 0.614 µM | – | – |
| CC(C)C[C@@H](N)[C@H](O)C(=O)N[C@H](C(=O)N[C@@H](CCC(=O)O)C(=O)N[C@@H](CC(=O)O)C(=O)O)C(C)C [X--Val--Glu--Asp, (2S,3R)-AHMHA-Val-Glu-Asp] | 0.198 µM | 15.9 µM | 100 µg/mL | 15 µg/mL |
| CC(C)C[C@@H](N)[C@H](O)C(=O)N[C@H](C(=O)N[C@H](C(=O)N[C@H](C(=O)O)C(C)C)C(C)C)C(C)C [X--Val--Val--Val, (2S,3R)-AHMHA-Val-Val-Val] | 3.92 µM | 9.38 µM | – | – |
| CC(C)C[C@@H](N)[C@H](O)C(=O)N[C@@H](CCCCN)C(=O)N[C@H](C(=O)N[C@@H](CC(=O)O)C(=O)O)C(C)C [X--Lys--Val--Asp, (2S,3R)-AHMHA-Lys-Val-Asp] | 218 µM | 2.98 µM | – | – |
| CC(C)C[C@@H](N)[C@H](O)C(=O)N[C@H](C(=O)N[C@H](C(=O)N[C@H](C(=O)O)[C@@H](C)O)C(C)C)C(C)C [X--Val--Val--Thr, (2S,3R)-AHMHA-Val-Val-Thr] | 7.6 µM | 5.86 µM | – | – |
| CC(C)C[C@@H](N)[C@H](O)C(=O)N[C@@H](CCC(=O)O)C(=O)N[C@H](C(=O)N[C@@H](CC(=O)O)C(=O)O)C(C)C [X--Glu--Val--Asp, (2S,3R)-AHMHA-Glu-Val-Asp] | 79.3 µM | 3.96 µM | 2.0 µg/mL | 6 µg/mL |
| CC(C)C[C@@H](N)[C@H](O)C(=O)N[C@H](C(=O)N[C@@H](CC(=O)O)C(=O)O)C(C)C [X--Val--Asp] | 0.799 µM | 32 µM | – | – |
| CC(C)C[C@H](NC(=O)[C@@H](O)[C@H](N)CC(C)C)C(=O)N[C@H](C(=O)N[C@@H](CC(=O)O)C(=O)O)C(C)C [X--Leu--Val--Asp, (2S,3R)-AHMHA-Leu-Val-Asp] | 0.614 µM | 10.2 µM | – | – |
| CC(C)C[C@@H](N)[C@H](O)C(=O)N[C@@H](C)C(=O)N[C@@H](C)C(=O)N[C@@H](CC(=O)O)C(=O)O [X--Ala--Ala--Asp] | > 597 µM | > 597 µM | – | – |
| CC(C)C[C@@H](N)[C@H](O)C(=O)N[C@H](C(=O)N[C@H](C(=O)N[C@@H](Cc1ccccc1)C(=O)O)C(C)C)C(C)C [X--Val--Val--Phe, (2S,3R)-AHMHA-Val-Val-Phe] | 4.34 µM | 14.2 µM | – | – |
| CC(C)C[C@@H](N)[C@H](O)C(=O)N[C@H](C(=O)N[C@H](C(=O)N[C@@H](CCCNC(=N)N)C(=O)O)C(C)C)C(C)C [X--Val--Val-- Arg, (2S,3R)-AHMHA-Val-Val-Arg] | 38.8 µM | 26.2 µM | – | – |
| CC(C)C[C@@H](N)[C@H](O)C(=O)N[C@H](C(=O)N[C@H](C(=O)N1CCC[C@H]1C(=O)O)C(C)C)C(C)C [X--Val--Val--Pro, (2S,3R)-AHMHA-Val-Val-Pro] | 5.91 µM | 76.7 µM | – | – |
| CC(C)C[C@@H](N)[C@H](O)C(=O)N[C@H](C(=O)N[C@H](C(=O)N[C@@H](Cc1ccccc1)C(=O)O)[C@@H](C)O)C(C)C [X--Val--Thr--Phe, (2S,3R)-AHMHA-Val-Thr-Phe] | 0.727 µM | 1.18 µM | – | – |
| CC(C)C[C@@H](N)[C@H](O)C(=O)N[C@H](C(=O)N[C@H](C(=O)O)C(C)C)C(C)C [X--Val--Val] | 2.5 µM | 10 µM | – | – |
| CC(C)C[C@@H](N)[C@H](O)C(=O)N[C@@H](CC(=O)O)C(=O)O [X--Asp] | 105 µM | > 905 µM | – | – |
